Some test systems named below: SW-620 colon; MDA-MB-231 breast; MCF7 breast; SK-OV-3 ovarian; SNB-75 CNS; A549 NSCLC; NCI-H226 lung; NCI-H460 lung; SR leukemia; UACC-257 melanoma.
Holding throughout (assay): NCI tumour cell line growth inhibition, 48 h

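Compound exposure: 48 hours, 5 concentrations, 96-well plates. GI50 is the concentration that inhibits growth by half. TGI: total growth inhibition.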 A value given as a limit tells only on which side of the number the result lay.

Consider eight molecules from PubChem BioAssay (NCI).

With `Clc1ccc(-c2cn(-c3ccccc3)c(-c3ccccc3)n2)c(Cl)c1`, the GI50 was 1.01 µM in the test with SW-620 colon; 23 µM in the test with MDA-MB-231 breast; 1.56 µM in the test on MCF7 breast; 5.15 µM in the test on SK-OV-3 ovarian; 0.864 µM in the test on SNB-75 CNS; 1.77 µM in the test on A549 NSCLC. For the same molecule, the GI50 was over 26 µM in the test with NCI-H226 lung, 1.09 µM in the test with NCI-H460 lung, 1.05 µM in the test on SR leukemia and over 22.8 µM in the test with UACC-257 melanoma. Moreover, the TGI with SW-620 colon was 2.07 µM; in the test on MDA-MB-231 breast, over 50 µM; in the test on MCF7 breast it was over 12.3 µM; in the test with SK-OV-3 ovarian it was over 35.7 µM; with SNB-75 CNS, 2.2 µM; with NCI-H226 lung it was over 50 µM. Further, the TGI in the test on NCI-H460 lung was 2.39 µM; with SR leukemia, 4.01 µM; in the test with UACC-257 melanoma, over 50 µM.
As to `CCOC(=O)c1cnc2c(cnn2CC)c1NN=C(C)C`, the GI50 is 83.8 µM in the test on SW-620 colon; 45.1 µM in the test on MDA-MB-231 breast; 90.4 µM in the test with MCF7 breast; 55.7 µM with SK-OV-3 ovarian; 36.6 µM in the test on SNB-75 CNS; 40.1 µM in the test with A549 NSCLC. The GI50 in the test on NCI-H226 lung is 57.4 µM; in the test on NCI-H460 lung it was 57.5 µM; in the test on SR leukemia, 33.6 µM; in the test with UACC-257 melanoma, 30.4 µM. The TGI with SW-620 colon, with MDA-MB-231 breast, with MCF7 breast, in the test with SK-OV-3 ovarian, with SNB-75 CNS and in the test on A549 NSCLC was over 100 µM each time. The TGI with NCI-H226 lung, in the test with NCI-H460 lung, in the test with SR leukemia and in the test on UACC-257 melanoma was over 100 µM each time.
In the case of `N#CC(=S)Nc1ccc(F)cc1`, the TGI in the test with SW-620 colon, in the test with MDA-MB-231 breast, in the test on MCF7 breast, in the test on SK-OV-3 ovarian, in the test on SNB-75 CNS and with A549 NSCLC was over 100 µM in each case. For the same molecule, the TGI in the test on NCI-H226 lung, with NCI-H460 lung, in the test with SR leukemia and with UACC-257 melanoma was over 100 µM each time.
With `Oc1ccc(-c2nc3ccc4[nH]ncc4c3c3c2CCCC3)c2cccnc12`, the GI50 with SW-620 colon was 0.123 µM; with MDA-MB-231 breast it was 0.423 µM; with MCF7 breast, 0.179 µM; with SK-OV-3 ovarian, 0.509 µM; in the test on SNB-75 CNS, 0.132 µM; in the test with A549 NSCLC, 0.134 µM. The GI50 in the test with NCI-H226 lung is 1.22 µM; in the test with NCI-H460 lung, 0.122 µM; with SR leukemia, 0.12 µM; in the test with UACC-257 melanoma, 0.888 µM. Besides, the TGI in the test on SW-620 colon amounted to 11.1 µM; with MDA-MB-231 breast, 6.79 µM; in the test on MCF7 breast it was 2.89 µM; with SK-OV-3 ovarian, 2.26 µM; with SNB-75 CNS it was 1.06 µM; with A549 NSCLC it was 2.14 µM. Besides, the TGI came to 5.79 µM in the test with NCI-H226 lung, 0.863 µM in the test on NCI-H460 lung, 7.79 µM in the test on SR leukemia and 3.68 µM in the test with UACC-257 melanoma.
Turning to `COc1cc(/C=C/C(=O)c2cc(OC)c(OC)c(OC)c2)cc(OC)c1OC`, the GI50 is 2.18 µM with SW-620 colon; 6.89 µM with MDA-MB-231 breast; 3.05 µM with MCF7 breast; 11.5 µM in the test on SK-OV-3 ovarian; 2.31 µM in the test on SNB-75 CNS; 3.74 µM in the test with A549 NSCLC. In addition, the GI50 was 6.36 µM in the test on NCI-H226 lung, 1.89 µM in the test with NCI-H460 lung, 1.46 µM with SR leukemia and 4.35 µM with UACC-257 melanoma. The TGI is 5.67 µM in the test with SW-620 colon; over 100 µM with MDA-MB-231 breast; 15.3 µM with MCF7 breast; over 100 µM with SK-OV-3 ovarian; 9.41 µM in the test with SNB-75 CNS; 46.1 µM with A549 NSCLC. Also, the TGI was 87.4 µM in the test with NCI-H226 lung, 4.07 µM with NCI-H460 lung, 8.41 µM with SR leukemia and 34.6 µM in the test with UACC-257 melanoma.
With `CC(C)(C)c1nnc2n(c1=O)N=CC(c1ccc(Br)cc1)S2` (centres undefined), the GI50 is 35.1 µM with SW-620 colon; 24.5 µM with MDA-MB-231 breast; 42 µM in the test with MCF7 breast; 89.9 µM in the test with SK-OV-3 ovarian; 21.5 µM in the test with SNB-75 CNS; 43 µM with A549 NSCLC. For the same molecule, the GI50 with NCI-H226 lung is 21.4 µM; with NCI-H460 lung, 30.1 µM; with SR leukemia it was 24.2 µM; in the test with UACC-257 melanoma, 30.5 µM. Besides, the TGI in the test with SW-620 colon is over 100 µM; with MDA-MB-231 breast, 48.1 µM; in the test with MCF7 breast, over 100 µM; with SK-OV-3 ovarian it was over 100 µM; in the test with SNB-75 CNS, 96.6 µM; with A549 NSCLC, over 100 µM. Also, the TGI with NCI-H226 lung is 51 µM; with NCI-H460 lung it was over 100 µM; with SR leukemia it was 80.7 µM; in the test on UACC-257 melanoma it was 69.4 µM.
As for `COc1cc2c3c(n(C)c(=O)c2cc1OC)-c1cc2c(cc1/C3=C\[C@@H](N)CCCCN)OCO2`, the GI50 in the test with SW-620 colon was 1.57 µM; with MDA-MB-231 breast, 1.54 µM; in the test on MCF7 breast it was 0.657 µM; with SK-OV-3 ovarian, over 26.2 µM; in the test on SNB-75 CNS, 0.985 µM; with A549 NSCLC, 0.381 µM. The figures for the GI50 with NCI-H226 lung, with NCI-H460 lung and in the test with UACC-257 melanoma were 1.48 µM, 0.707 µM and 5.24 µM, respectively. In addition, the TGI in the test on SW-620 colon is over 100 µM; with MDA-MB-231 breast, over 48.5 µM; with MCF7 breast it was over 49.3 µM; in the test on SK-OV-3 ovarian, over 100 µM; with SNB-75 CNS, over 41.3 µM; in the test with NCI-H226 lung, 18.4 µM. Moreover, the TGI is over 82.9 µM in the test on NCI-H460 lung and over 52.8 µM with UACC-257 melanoma.
With `COC(=O)c1cc2c(cc1Cl)SC(N(N(C)C)S(=O)(=O)c1ccc(Cl)cc1)=NS2(=O)=O`, the GI50 is 14.3 µM in the test with SW-620 colon; 17.1 µM with MDA-MB-231 breast; 17 µM with MCF7 breast; 17.9 µM with SK-OV-3 ovarian; 23.7 µM with SNB-75 CNS; 17.2 µM with A549 NSCLC. Also, the results for the GI50 in the test with NCI-H226 lung, in the test with NCI-H460 lung and in the test on SR leukemia were 19.8 µM, 18.7 µM and 19.8 µM, respectively. For the same molecule, the TGI in the test on SW-620 colon is 27.4 µM; with MDA-MB-231 breast it was 44 µM; in the test with MCF7 breast, 34.8 µM; with SK-OV-3 ovarian, 49.2 µM; with SNB-75 CNS, 69.9 µM; in the test on A549 NSCLC, over 100 µM. Moreover, the TGI in the test on NCI-H226 lung was 62 µM; with NCI-H460 lung, 37.4 µM; with SR leukemia, 40.9 µM.
